Laboratory results: PubChem BioAssay (NCI)
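Cells were grown in 96-well plates and exposed to each compound for 48 hours at five concentrations; endpoints were interpolated linearly between bracketing concentrations, or set to the highest concentration if not reached. TGI marks complete inhibition of growth.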

How the values were obtained:
Experiment in all cases: inhibition of tumour cell growth, NCI panel, 48 h
786-0 renal = test system: 786-0 renal
A498 renal = test system: A498 renal
A549 NSCLC = test system: A549 NSCLC
ACHN renal = test system: ACHN renal
BT-549 breast = test system: BT-549 breast
CAKI-1 renal = test system: CAKI-1 renal
CCRF-CEM leukemia = test system: CCRF-CEM leukemia
COLO 205 colon = test system: COLO 205 colon
DU-145 prostate = test system: DU-145 prostate
EKVX NSCLC = test system: EKVX NSCLC
HCC-2998 colon = test system: HCC-2998 colon
HCT-116 colon = test system: HCT-116 colon
HCT-15 colon = test system: HCT-15 colon
HL-60(TB) leukemia = test system: HL-60(TB) leukemia
HOP-62 NSCLC = test system: HOP-62 NSCLC
HOP-92 NSCLC = test system: HOP-92 NSCLC
HS 578T breast = test system: HS 578T breast
HT29 colon = test system: HT29 colon
IGROV1 ovarian = test system: IGROV1 ovarian
K-562 leukemia = test system: K-562 leukemia
KM12 colon = test system: KM12 colon
LOX IMVI melanoma = test system: LOX IMVI melanoma
M14 melanoma = test system: M14 melanoma
MALME-3M melanoma = test system: MALME-3M melanoma
MCF7 breast = test system: MCF7 breast
MDA-MB-231 breast = test system: MDA-MB-231 breast
MDA-MB-435 = test system: MDA-MB-435
MDA-N = test system: MDA-N
MOLT-4 leukemia = test system: MOLT-4 leukemia
NCI-H226 lung = test system: NCI-H226 lung
NCI-H23 lung = test system: NCI-H23 lung
NCI-H460 lung = test system: NCI-H460 lung
NCI-H522 lung = test system: NCI-H522 lung
NCI/ADR-RES ovarian = test system: NCI/ADR-RES ovarian
OVCAR-3 ovarian = test system: OVCAR-3 ovarian
OVCAR-4 ovarian = test system: OVCAR-4 ovarian
OVCAR-5 ovarian = test system: OVCAR-5 ovarian
OVCAR-8 ovarian = test system: OVCAR-8 ovarian
PC-3 prostate = test system: PC-3 prostate
RPMI-8226 leukemia = test system: RPMI-8226 leukemia
RXF 393 renal = test system: RXF 393 renal
SF-268 CNS = test system: SF-268 CNS
SF-295 CNS = test system: SF-295 CNS
SF-539 CNS = test system: SF-539 CNS
SK-MEL-2 melanoma = test system: SK-MEL-2 melanoma
SK-MEL-28 melanoma = test system: SK-MEL-28 melanoma
SK-MEL-5 melanoma = test system: SK-MEL-5 melanoma
SK-OV-3 ovarian = test system: SK-OV-3 ovarian
SN12C renal = test system: SN12C renal
SNB-19 CNS = test system: SNB-19 CNS
SNB-75 CNS = test system: SNB-75 CNS
SR leukemia = test system: SR leukemia
SW-620 colon = test system: SW-620 colon
T-47D breast = test system: T-47D breast
TK-10 renal = test system: TK-10 renal
U251 CNS = test system: U251 CNS
UACC-257 melanoma = test system: UACC-257 melanoma
UACC-62 melanoma = test system: UACC-62 melanoma
UO-31 renal = test system: UO-31 renal

## COc1cccc(C2c3cc4c(cc3OC(C)(N3CCCC3)C2C)OCO4)c1O (centres undefined)
786-0 renal
  TGI: > 56 µM
A498 renal
  TGI: 40.5 µM
A549 NSCLC
  TGI: 75 µM
ACHN renal
  TGI: > 83.1 µM
BT-549 breast
  TGI: 48.2 µM
CAKI-1 renal
  TGI: 28.7 µM
CCRF-CEM leukemia
  TGI: 21.2 µM
COLO 205 colon
  TGI: 10.4 µM
DU-145 prostate
  TGI: 15.3 µM
EKVX NSCLC
  TGI: > 91.6 µM
HCC-2998 colon
  TGI: 25.6 µM
HCT-116 colon
  TGI: 47.9 µM
HCT-15 colon
  TGI: 29 µM
HL-60(TB) leukemia
  TGI: 6.01 µM
HOP-62 NSCLC
  TGI: 31.6 µM
HOP-92 NSCLC
  TGI: 71.4 µM
HS 578T breast
  TGI: 5.59 µM
HT29 colon
  TGI: 12.2 µM
IGROV1 ovarian
  TGI: > 70 µM
K-562 leukemia
  TGI: 18.3 µM
KM12 colon
  TGI: 27.4 µM
LOX IMVI melanoma
  TGI: 19.2 µM
M14 melanoma
  TGI: 14 µM
MALME-3M melanoma
  TGI: 42.3 µM
MCF7 breast
  TGI: > 37.1 µM
MDA-MB-231 breast
  TGI: 18.4 µM
MDA-MB-435
  TGI: 3.82 µM
MDA-N
  TGI: 5.81 µM
MOLT-4 leukemia
  TGI: > 54.6 µM
NCI-H226 lung
  TGI: 19.9 µM
NCI-H23 lung
  TGI: 8.9 µM
NCI-H460 lung
  TGI: 37 µM
NCI-H522 lung
  TGI: 6.01 µM
NCI/ADR-RES ovarian
  TGI: 11.8 µM
OVCAR-3 ovarian
  TGI: 5.45 µM
OVCAR-4 ovarian
  TGI: > 100 µM
OVCAR-5 ovarian
  TGI: 77.3 µM
OVCAR-8 ovarian
  TGI: 40 µM
PC-3 prostate
  TGI: > 43.5 µM
RPMI-8226 leukemia
  TGI: 36.5 µM
RXF 393 renal
  TGI: > 40.6 µM
SF-268 CNS
  TGI: > 72.5 µM
SF-295 CNS
  TGI: 17.5 µM
SF-539 CNS
  TGI: 21.8 µM
SK-MEL-2 melanoma
  TGI: > 23.5 µM
SK-MEL-28 melanoma
  TGI: > 100 µM
SK-MEL-5 melanoma
  TGI: 13.3 µM
SK-OV-3 ovarian
  TGI: 38.4 µM
SN12C renal
  TGI: 48.6 µM
SNB-19 CNS
  TGI: > 100 µM
SNB-75 CNS
  TGI: 17.2 µM
SR leukemia
  TGI: 19.3 µM
SW-620 colon
  TGI: > 100 µM
T-47D breast
  TGI: > 100 µM
TK-10 renal
  TGI: 77.1 µM
U251 CNS
  TGI: 53.8 µM
UACC-257 melanoma
  TGI: > 100 µM
UACC-62 melanoma
  TGI: 46.8 µM
UO-31 renal
  TGI: 56.4 µM
